A word on the IC50: it is the concentration needed to halve the response being measured. A high value points to weaker potency.

human-KAT6A (MYST domain 507-778 aa), sequence (Q92794 507-778): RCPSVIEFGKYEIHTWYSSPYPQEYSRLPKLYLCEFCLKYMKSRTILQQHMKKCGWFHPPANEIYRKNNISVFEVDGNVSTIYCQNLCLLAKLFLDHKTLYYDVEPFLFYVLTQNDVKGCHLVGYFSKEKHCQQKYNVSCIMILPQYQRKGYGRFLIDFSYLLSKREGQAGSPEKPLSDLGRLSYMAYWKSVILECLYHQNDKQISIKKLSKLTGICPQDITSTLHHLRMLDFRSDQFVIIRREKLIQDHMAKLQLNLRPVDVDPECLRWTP

The test deals with human-KAT6A (MYST domain 507-778 aa) (Homo sapiens (Human), UniProt Q92794). The test is described as follows: KAT6A biochemical assay (TR-FRET). Particulars: H4 peptide 200 nM, acetyl-CoA 600 nM. An excerpt:
TR-FRET based method was used for assaying compounds of the present invention for KAT6A enzyme inhibitory activity. TR-FRET is homogeneous proximity assay where Europium-labelled anti-acetyl lysine antibody binds to the acetylated substrate labelled with biotin which in turn binds to streptavidin labelled APC fluorescence acceptor. Europium can transfer energy to APC in the complex and the interaction of two dye-labelled binding partners is detected by the energy transfer between a donor and an acceptor dye, and the subsequent light emission by the acceptor dye. KAT6A transfer an acetyl group from acetyl CoA to lysine amino acids of histones/target proteins. Typically, 5 μL of human-KAT6A (MYST domain 507-778 aa) in assay buffer (100 mM Tris HCl (pH 7.8), 15 mM NaCl, 1 mM EDTA, 0.01% Tween-20, 0.02% BSA, 1 mM DTT) is added to 384-well plate containing 5 μL of selected test compound in final 1% DMSO, serially diluted in 1:3 in an 8-10-point titration. The selected compound of the present invention and enzyme are incubated for 30 min at room temperature. Next, 5 μL of substrate mix containing histone H4 peptide and acetyl-CoA in assay buffer is added to the plate. The final concentrations of H4 peptide and acetyl-CoA are 200 nM and 600 nM respectively. Following 30 min reaction at room temperature, 5 μL of detection mix containing Europium labelled anti-acetyl antibody and streptavidin-APC is added to the reaction wells. The plate is further incubated for 45 min at room temperature and is read in TR-FRET mode (Ex:340 nm; Em: 615 nm and 665 nm) on a plate reader. The percent inhibition was calculated from the ratio of the fluorescence (FL) intensities [(F665/F615)×10,000) using the formula […]. IC50 values of the compounds were determined by fitting the dose-response data to sigmoidal curve fitting equation using Graph pad prism software V8.
(In general: In TR-FRET formats the signal depends on donor and acceptor labels being close together.)
Molecule `O=S(=O)(Nc1noc2cc(Cn3cccn3)c3c(c12)OCC3)c1ccccc1-c1ccccc1` [Compound 53] had an IC50 of 29 nM.
Next, `COc1cccc(OC)c1S(=O)(=O)Nc1noc2cc(-c3cccnc3)c3c(c12)OCC3` [Compound 54]: 158 nM.
Next, `COc1ccccc1S(=O)(=O)Nc1noc2cc(Cn3cccn3)c3c(c12)OCC3` [Compound 55]: 34 nM; `COc1cccc(OC)c1S(=O)(=O)Nc1noc2cc(-c3ccccc3)c3c(c12)OC(C)(C)C3` [Compound 57]: 135 nM; `COc1cccc(OC)c1S(=O)(=O)Nc1noc2cc(Cn3cccn3)c3cc(C)oc3c12` [Compound 58]: 21 nM.
`COc1cccc(OC)c1S(=O)(=O)Nc1noc2cc(-c3ccccc3)c3cc(C)oc3c12` [Compound 59] came in with a half-maximal inhibitory concentration (IC50) of 35 nM.
On to `COCC1Cc2c(Cn3cccn3)cc3onc(NS(=O)(=O)c4c(OC)cccc4OC)c3c2O1` (stereo not drawn) [Compound 60, N-(4-((1H-pyrazol-1-yl)methyl)-2-(methoxymethyl)-2,3-dihydrobenzofuro[7,6-d]isoxazol-8-yl)-2,6-dimethoxybenzenesulfonamide], for which half-maximal inhibition (IC50) required 99 nM.
On to `COc1ccc(C(=O)O)cc1S(=O)(=O)Nc1noc2cc(Cn3cccn3)c3c(c12)OCC3` [Compound 63, 3—(N-(4-((1H-pyrazol-1-yl)methyl)-2,3-dihydrobenzofuro[7,6-d]isoxazol-8-yl)sulfamoyl)-4-methoxybenzoic Acid], for which inhibition was half-maximal at 23 nM (IC50).
`COc1cc(C2CC2)ccc1S(=O)(=O)Nc1noc2cc(Cn3cccn3)c3c(c12)OCC3` [Compound 65, N-(4-((1H-pyrazol-1-yl)methyl)-2,3-dihydrobenzofuro[7,6-d]isoxazol-8-yl)-4-cyclopropyl-2-methoxybenzenesulfonamide]: the IC50 is 10 nM.

(Values after patent publication US20250059204A1, “FUSED BENZOISOXAZOLYL COMPOUNDS AS KAT6A INHIBITORS” (Aurigene Oncology Limited, priority 2021, published 2025).)
